Data from US20110251213A1, “Cosmetic Use of 1-Aroyl-N-(2-oxo-3-piperidinyl)-2-Piperazine Carbomamides and Related Compounds” (Avon Products, Inc., priority 2008, published 2011).
Like-named read-outs stand apart in the source and are kept apart here.

How the values were obtained:
[1] = system: procollagen 1; details: human dermal fibroblasts, 5 μg/ml, 48 hours
Experimental: Human dermal fibroblasts (Cascade Biologics) were cultured in 96-well tissue culture plates in growth medium (DMEM, 5% FBS, 1% L-Glut, and 1% antibiotics) and incubated for 24 hours at 37° C. […] Procollagen 1 levels were assayed using an ELISA kit from Takara (Procollagen Type-1 C-Peptide EIA Kit, Takara Bio Inc.) as per manufacturer's instructions.

[2] = system: Desmoglein 1; details: keratinocytes
Experimental: Normal human keratinocytes were cultured in 96 well tissue culture treated plates in Epilife medium with growth supplements (Cascade Biologics Inc.). Cells were treated with test material or a dimethylsulfoxide vehicle control diluted in growth medium for 24 hours in a humidified 37° C. incubator with 10% CO2. After incubation, growth medium from each plate was removed and 100 μl of lysis buffer was added to each of the wells and placed in the humidified 37° C. incubator with 10% CO2 for 30 minutes. At the end of the incubation period, the cells were collected in freezer plates and placed in a −80° C. freezer, until analysis. Changes in mRNA for Desmoglein 3 (DSG3) after treatment were analysed using Panomics Quantigene multiplex assay that employs branched DNA technology.

[3] = system: Dermatopontin; details: fibroblasts, 24 hours, p<0.05
Experimental: Normal human dermal fibroblasts were cultured in 96 well tissue culture treated plates, containing appropriate culture medium. Cells were treated with 1-aroyl-N-(2-oxo-3-piperidinyl)-2-piperazine carboxamide test material, diluted in growth medium, for 24 hours in a humidified 37° C. incubator with 10% CO2. After incubation, growth medium from each plate was removed and 100 μl of lysis buffer was added to the wells and placed in 37° C. incubator with10% CO2 for 30 minutes. At the end of incubation, the cells were collected in freezer plates and placed in −80° C. freezer, until analysis. Changes in mRNA for Dermatopontin after treatment were analysed using Panomics Quantigene multiplex assay that employs a branched DNA technology.

In the case of “1-aroyl-N-(2-oxo-3-piperidinyl)-2-piperazine carboxamide”, the “increase in collagen synthesis compared to control” value [1] is reported as 75.4%, the “increase in Desmoglein 1 expression” value ([2]; 0.00005% of the test material, 24 hours) is reported as “did not show a statistically significant increase” and the “increase in Desmoglein 1 expression” value ([2]; concentration of 0.0005%, after 24 hours, average of three samples, p<0.05) is reported as 95%. The “stimulation in mRNA levels for Dermatopontin” value ([3]; 0.00005%) was 43% and the “stimulation in mRNA levels for Dermatopontin” value ([3]; 0.0005%) was 62%.
